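Step 1: Grow cells in 96-well plates. Step 2: Expose to compound for 48 hours at 5 concentrations. Step 3: Interpolate endpoints linearly; if unreached, use highest concentration. Abbreviation: GI50, concentration required for 50% inhibition of growth. Definition used: TGI = concentration required for complete inhibition of growth.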

Experimental findings from PubChem BioAssay (NCI) are described below.

Common to all, as to experiment: NCI anticancer screen, dose series, 48 h
In test [1] the test system is MOLT-4 leukemia.
Test [2] has as its system SNB-75 CNS.
In test [3] the test system is HOP-92 NSCLC.
The test system of test [4] is U251 CNS.
In test [5] the test system is OVCAR-3 ovarian.
Test [6] concerns HOP-62 NSCLC.
The test system of test [7] is SNB-19 CNS.
Test [8] relates to MDA-MB-435.
For test [9], the system named is LOX IMVI melanoma.
The test system of test [10] is SF-295 CNS.

As for `N#C/C(=C\c1ccc2[nH]ccc2c1)C(=O)NCCCCNC(=O)/C(C#N)=C/c1ccc2[nH]ccc2c1`, the TGI in test [1], in test [2], in test [3], in [4], in [5] and in test [6] was more than 31.6 µM throughout. Moreover, the TGI in test [7] is more than 31.6 µM; in [8], more than 10 µM; in [9], more than 31.6 µM; in test [10], more than 31.6 µM.

Regarding `Cn1c(COC(=O)NCCc2ccccn2)nc2c(N3CCOCC3)nc(Cl)nc21`, the GI50 is 2.41 µM in [1]; 1.38 µM in [2]; 1.13 µM in test [3]; 1.63 µM in [4]; 1.08 µM in test [5]; 1.65 µM in [6]. Further, the GI50 is 3.97 µM in test [7], 1.46 µM in [8], 0.899 µM in [9] and 6.73 µM in test [10]. For the same molecule, the TGI came to 8.09 µM in test [1]; 11.8 µM in [2]; 3.22 µM in test [3]; 3.34 µM in test [4]; 2.58 µM in test [5]; 4.88 µM in [6]. Also, the TGI in [7] was 16.1 µM; in test [8] it was 3.46 µM; in test [9], 2.39 µM; in [10], 19.8 µM.

In the case of `C[C@@]1(F)[C@H](O)[C@@H](CO)O[C@H]1n1ccc(=O)[nH]c1=O`, the GI50 in test [1], in test [2], in test [3], in test [4], in [5] and in test [6] was more than 100 µM throughout. Further, the GI50 in test [7], in test [8], in test [9] and in test [10] was more than 100 µM in each case. Besides, the TGI in [1], in test [2], in test [3], in test [4], in test [5] and in test [6] was more than 100 µM throughout. Besides, the TGI in test [7], in test [8], in [9] and in test [10] was more than 100 µM in each case.

Turning to `O=C1C(=O)c2c(nc3ccc(C(F)(F)F)cn23)-c2ccccc21`, the GI50 in test [1] is 0.237 µM; in test [2], 0.202 µM; in [3], 0.265 µM; in [4], 0.185 µM; in test [5], 0.179 µM; in test [6], 0.169 µM. In addition, the GI50 in test [7] is 0.303 µM; in test [8], 0.179 µM; in test [9] it was 0.173 µM; in test [10] it was 0.436 µM. Besides, the TGI in test [1] turned out to be 0.602 µM; in [2], 0.465 µM; in test [3], 0.773 µM; in test [4], 0.377 µM; in [5], 0.443 µM; in [6], 0.339 µM. Moreover, the TGI in test [7] was 0.763 µM; in test [8] it was 0.324 µM; in test [9], 0.354 µM; in test [10], 0.855 µM.

In the case of `CC1(C)CC(C)(C)c2cc(NC(=S)Nc3ccc([N+](=O)[O-])cc3)ccc2S1`, the GI50 is 19.1 µM in [1]; 16.7 µM in test [2]; 19.1 µM in test [3]; 11.1 µM in [4]; 9.75 µM in test [5]; 18.3 µM in test [6]. In addition, the GI50 in test [7] was 21 µM; in [8] it was 11.8 µM; in test [9], 12.4 µM; in test [10], 10.8 µM. For the same molecule, the TGI was more than 100 µM in [1]; 48.7 µM in test [2]; 36.5 µM in [3]; 29.4 µM in test [4]; 31.2 µM in test [5]; more than 49.5 µM in test [6]. The TGI in test [7] is more than 76.1 µM; in [8], 30.5 µM; in [9], 31.9 µM; in test [10] it was 27.2 µM.

Turning to `C=C1C(=O)O[C@@H]2/C=C(/C)[C@@H](OC(C)=O)C/C=C(\C)C(O)[C@@H](OC(=O)/C(C)=C\C)C12` (stereo not given in full), the TGI in test [1] is 74.6 µM; in [2], more than 100 µM; in [3] it was 50.3 µM; in test [4], more than 100 µM; in test [5], more than 100 µM; in test [6] it was more than 100 µM. Besides, the TGI in test [7] is more than 100 µM; in test [8] it was 57.5 µM; in test [9] it was 27.7 µM; in test [10], more than 100 µM.

`COc1ccc2[nH]c(C(=O)N3CCN(C(=O)OCc4ccc5c(Cl)cc(Cl)c(O)c5n4)CC3)cc2c1`: the GI50 is 0.356 µM in [1]; 1.08 µM in test [2]; 0.864 µM in test [3]; 1.48 µM in test [4]; 0.504 µM in test [5]; 1.56 µM in test [6]. Further, the GI50 is 1.54 µM in [7], 1.2 µM in [8], 1.43 µM in [9] and 3.91 µM in test [10]. Moreover, the TGI in test [1] was 1.79 µM; in test [2], 2.4 µM; in [3], 2.4 µM; in test [4] it was 2.81 µM; in test [5], 1.83 µM; in test [6] it was 3.36 µM. Besides, the TGI was found to be 2.87 µM in test [7], 2.72 µM in [8], 2.81 µM in test [9] and 13.8 µM in test [10].

`Nc1cc2c3c(cccc3c1)C(=O)N(CCN1CCCC1)C2=O`: the GI50 in test [1] was 1.74 µM; in test [2], 3.4 µM; in test [3], 2.94 µM; in test [4] it was 3.4 µM; in test [5], 5.26 µM; in test [6] it was 2.58 µM. Further, the GI50 in test [7] is 3.33 µM; in test [8], 4.06 µM; in test [9], 2.25 µM; in [10] it was 2.59 µM. Besides, the TGI was more than 46.4 µM in [1]; 17 µM in test [2]; more than 54.4 µM in [3]; more than 100 µM in test [4]; 29.3 µM in [5]; 25.5 µM in test [6]. Further, the TGI turned out to be 29 µM in [7], 14.8 µM in test [8], 13.4 µM in test [9] and 11.2 µM in test [10].
